Assay results: US11819021B2, “Peptides and methods and uses thereof for modulating anaphase promoting complex (APC) activity” (University of Saskatchewan, priority 2017, dated 2023)
Entries after “also recorded” stand apart in the source; their conditions may differ. No end group written: not given here.

What was measured:
[1] = test system: MCF7 human breast cancer cells selected for resistance to Tamoxifen; experiment: Trypan Blue viability of drug resistant MCF7 breast cancer cells; format: cell-based
Description: (§1) A. Parental MCF7 human breast cancer cells, or cells selected for resistance to Tamoxifen, were treated with 1 or 5 μM M2I-1. Tamoxifen resistant cells were also treated with both Doxorubicin and M2I-1. Trypan Blue. (3 rpts). ND, no data. B. Protein lysates were prepared from the cells used in A. The APC target HURP was measured using antibodies against HURP. C. Trypan Blue was used to measure viability of OSW canine lymphoma cells pretreated with 1 μmol M2I-1 (18 hrs), followed by 1 μmol DOX (48 hrs). Parental cells were only treated with monotherapy (3 rpts). ND, no data. D. OSW matched cells treated with the APC activator M2I-1 were prepared for APC substrate westerns E. Quantification of western protein abundance (3 rpts).
(§2) Drug resistant human breast cancer cells in culture were treated with the M2I-1 activator.

HURP = experiment: Western of APC substrates in drug resistant MCF7 cells; format: cell-based; conditions: drug resistant human breast cancer cells
Description: as §1, §2

[2] = test system: OSW canine lymphoma cells; experiment: Trypan Blue viability of drug resistant OSW lymphoma cells; format: cell-based; conditions: OSW dog lymphoma cells selected for drug resistance; 1 μmol M2I-1 (18 hrs) then 1 μmol DOX (48 hrs)
Description: as §1, §2

[3] = test system: human breast tumor (4-28 PDX); experiment: Tumor growth in mouse model of patient derived triple negative breast cancer (4-28 PDX); format: in vivo; conditions: single 25 mg/kg i.p. injection, Doxorubicin resistant TNBC PDX mouse
Description: (§3) A. In vivo study of M2I-1 impact on human breast tumor (4-28 PDX). Single 25 mg/kg i.p. injection (treatment) versus mock (DMSO) day 1, tumor size measured daily. B. Western analysis of apoptosis (PARP cleavage—24 kDa band) and APC substrate abundance (Cyclin B) in liver and tumor of treated and control after sacrifice on Day 6.
(§4) A mouse model for growing patient derived breast tumor cells obtained from a patient with triple negative breast cancer was developed. This patient had developed resistance to Doxorubicin. Tumors growing in these mice grow rapidly. A mouse was injected with 25 mg/kg M2I-1.

Cyclin B = experiment: Western of APC substrate abundance in PDX tumor; format: in vivo, mouse; conditions: 25 mg/kg, after sacrifice on Day 6
Description: as §3, §4

Apc10 = biological target: T1, Apc10 (Saccharomyces cerevisiae, UniProt P53068); experiment: Yeast 2-hybrid (Y2H) binding of peptide prey to Apc10 bait; conditions: galactose-inducible Trx-scaffold peptide prey
T1 construct: expressed in transfected cells; host or cells: yeast Y2H cells
T1 sequence (P53068 1-250): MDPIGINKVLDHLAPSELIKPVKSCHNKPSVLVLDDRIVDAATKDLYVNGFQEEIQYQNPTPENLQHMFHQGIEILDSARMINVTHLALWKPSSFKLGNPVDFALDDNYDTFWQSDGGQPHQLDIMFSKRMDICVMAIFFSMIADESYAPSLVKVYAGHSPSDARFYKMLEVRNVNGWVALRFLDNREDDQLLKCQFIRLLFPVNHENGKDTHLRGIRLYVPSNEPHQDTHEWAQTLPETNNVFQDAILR
Description: (§5) The reverse genetic screen utilized a yeast 2-hybrid (Y2H) protocol that selected for peptides that bound to the APC subunits Apc5 or Apc10 (see FIG. 5 for APC structure), to assess whether peptide-binding might modify APC function. Peptides that bound APC subunits were then assayed for those that suppressed APC mutant defects.
A library of random small peptides were cloned into a Thioredoxin (Trx) scaffold (see FIG. 6 for Trx-aptamer structure) and expressed from a galactose-inducible Y2H prey vector in cells expressing the Apc10 bait vector (the modified Apc10 is still part of the complete APC complex). Six peptides that reproducibly interacted with the Apc10 bait construct in Y2H assays were identified (FIG. 1A) and were examined further.
(§6) Random small peptides were cloned into the TrxA scaffold (library provided by R. Geyer, U of S) and expressed from a galactose-inducible Y2H prey vector in cells harboring either APC5 or APC10 Y2H bait vectors (APC5/APC10 bait constructs complement APC mutant defects).
(§7) Over 100 peptides that bound either Apc5 or Apc10 were recovered from millions screened. Six peptides that reproducibly interacted with the Apc10 bait construct in Y2H assays were examined further. Vectors expressing these 6 peptides were transformed into APC mutant cells and assessed for ts growth.

[4] = test system: APC mutant (apc5 temperature sensitive mutant and/or apc10Δ mutant); experiment: Viability/growth of APC mutant yeast cells; format: cell-based
Description: (§8) A. apc5^CA cells expressing small peptides were assayed for replicative life span (RLS). B. Cells expressing HTZ1 were grown under stress conditions. HTZ1 expression, even at low levels, suppresses apc5^CA and apc10Δ defects. The cells shown were transformed with either an empty vector or GAL inducible HTZ1. On 2% glucose, the construct is weakly expressed, and this is enough to increase growth of APC mutants at 30° C.
Examples of yeast cells with defective anaphase promoting complex (APC) function include apc5 and apc10 mutants. An example of an apc5 mutant is the apc5 temperature sensitive mutant described herein. An example of an apc10 mutant is the apc10 deletion mutant described herein.
as §5, §7

apc10Δ cells = experiment: Spot dilution growth of apc10Δ cells expressing peptides; format: cell-based, yeast; conditions: 30 and 34° C.
Excerpt: A. Y2H cells expressing the APC subunit bait and the galactose inducible Apc10 peptide prey grown on glucose or galactose. Cells co-expressing the Apc5 or Apc10-bait and Apc10 aptamer-prey vectors were spotted onto the appropriate media, in the presence or absence of galactose (the aptamers are Gal inducible), to confirm 2-hybrid interactions. Growth on trp-his-media ensures both plasmids are maintained. A 2-hybrid interaction will drive expression of the ADE2 gene, allowing growth on ade-media. B. Aptamers that bind Apc10 can suppress APC mutant phenotypes. Spot dilutions of apc10Δ cells expressing an empty vector control or the one of 6 Apc10 aptamers tested. Log phase cells were 10-fold serially diluted and spotted onto plates containing either 2% glucose or 2% galactose. The plates were then incubated at 30° C. (permissive temperature) and 34° C. (restrictive stress). C. Peptides identified as binding to the yeast Apc10 APC subunit using the yeast 2-hybrid screen increase growth of cells on stress conditions. A series of APC binding peptides were transformed into wild type yeast cells, spot diluted, and grown at 30° C. on media supplemented with the normal carbon source (2% glucose). Alternatively, cells were grown on media supplemented with 2% galactose to induce a carbon stress. D. Peptides were expressed in apc5^ts temperature sensitive cells and grown on glucose or galactose media at 30° C.
The cells were exposed to 5 sec of UV from a UV box prior to incubation.
The six peptide expressing vectors were transformed into apc10Δ cells and assessed for temperature sensitive growth. Two of the peptides, C43-4 and C2-4B, suppressed the apc10Δ growth phenotype at 30 and 34° C. (FIG. 1B-D). […]
Over 100 peptides that bound either Apc5 or Apc10 were recovered from millions screened. […] Vectors expressing these 6 peptides were transformed into APC mutant cells and assessed for ts growth.
Methods • 1. […] The growth of the cells was determined by measuring the optical density (OD) of the cells at 600 nm (OD600) • 3. […]

[5] = test system: wild type (WT) yeast cells; experiment: Spot dilution growth and stress resistance of wild type yeast cells expressing peptides; format: cell-based
Description: (§9) A. apc5^CA (temperature sensitive allele) cells were transformed with C43-4, C2-4B or an empty vector. Cells grown overnight in 2% Glu were struck onto 2% Glucose plates and used for the yeast replicative lifespan (RLS) assay. B. Wild type (WT) cells transformed with C43-4, C2-4B or an empty vector were grown to stationary phase in 2% Glu media, then after 2 days spot diluted onto 2% Glu or 2% Gal to induce expression of the aptamers.
The cells were exposed to 5 sec of UV from a UV box prior to incubation. The plus signs define growth compared to the empty vector control.
(§10) The six peptide expressing vectors were transformed into apc10Δ cells and assessed for temperature sensitive growth. Two of the peptides, C43-4 and C2-4B, suppressed the apc10Δ growth phenotype at 30 and 34° C. (FIG. 1B-D). […] However, C43-4 and C2-4B increased replicative and chronological lifespan in both apc5^CA and WT cells, respectively (FIG. 2A). […] H2O2 induces oxidative stress whereas galactose induces a carbon stress.
These cells were spot diluted on Trp-plates and grown at the temperatures shown and/or exposed to ultraviolet (UV) irradiation (FIG. 11). At low level expression on glucose, some of the mutations caused stress dependent phenotypes.
Methods • 1. Cells were cultured overnight in Trp-2% glucose media • 2. The growth of the cells was determined by measuring the optical density (OD) of the cells at 600 nm (OD600) • 3. Cells were diluted to OD600 of 1 with fresh culture media • 4. 100 ul of each culture was pipetted into a well of a 96 well plate • 5. 10 ul of the each starting culture was pipetted into 90 ul of water in 4 additional wells to make a 10-fold serial spot dilution • 6. 5 ul from each serial dilution was spotted onto plates containing standard growth media with either 2% glucose or 2% galactose using a multi-pipettor • 7. The plates were exposed to UV • 8. The plates were then placed at room temperature, 30, 34 or 37° C. for 3-7 days • 9. The plates were scanned and saved as tiff files

apc5^CA cells = experiment: Yeast replicative lifespan (RLS) assay; format: cell-based
Description: as §9, §8

WT cells = experiment: Chronological lifespan of WT yeast cells; format: cell-based
Description: as §9, §10

wheat embryos = experiment: Expression of C43-4 in wheat embryos: localization and germination; format: in vivo; conditions: versus empty vector controls
Description: (§11) A. Wheat embryos were transformed with an expression vector harboring the C43-4-HA peptide fused to the red fluoresce protein (RFP), or an RFP empty vector, using a ballistic shotgun approach. Embryos were imaged using fluorescence to view RFP. B. Protein lysates were prepared from the transformed embryos and subjected to western analyses using antibodies against the APC substrate Securin. A nonspecific protein band is used to control for protein load.
C43-4 was subcloned into a plant vector and expressed in wheat embryos.
The wheat embryos (scutella) were transformed using a Biolistics-mediated transformation of wheat embryos. Wheat embryos were inoculated with Agrobacterium harbouring an RFP expression vector. Following inoculation with Agrobacterium, embryos were placed on a medium that allows for growth of both the embryos and the Agrobacterium. Timentin was used for killing remaining A. tumefaciens cells after co-cultivation.
Germination rate was determined as a function of time to observe growth from the embryo and on average, the transformed embryos containing the peptide germinated before empty vector controls. […] Accordingly, the Htz1-like peptide (C43-4) activates the APC in plants.

Securin = experiment: Western of APC substrate in transformed wheat embryos; format: cell-based
Description: as §11
APC targets APC substrates for degradation such that the relative levels provides an indication of APC activity in a cell. For example, if the substrates are reduced, without being bound by any theory, it is believed to mean that the APC is working better.

APC = experiment: Yeast 2-hybrid binding to the APC
Excerpt: As used herein, the expression “binds to the APC” refers to a peptide that binds to at least one subunit of the APC, for example Apc5 or Apc10. Binding can be measured for example, by any method known in the art, including, but not limited to a yeast 2-hybrid assay.
as §5, §6

[6] = test system: apc5^CA temperature sensitive mutant; experiment: Forward genetic screen: rescue of apc5^CA temperature sensitive growth; format: cell-based, yeast
Excerpt: Using a forward genetic screen to test whether temperature sensitive (ts) APC mutants expressing random small peptides could grow at restrictive temperatures, millions of small peptides were rapidly screened for those that could restore mutant APC phenotypes. Peptides that rescued the apc5^CA ts (temperature sensitive) defect were recovered including peptides Y65 and Y36.
In the forward screens, with galactose-inducible TrxA-based peptide libraries, in cells harboring the apc5^CA ts allele, over 200 peptides (from millions screened) suppressed the ts phenotype. Several recovered plasmids were sequenced.

Cin5 = biological target: T2, Cin5 (Saccharomyces cerevisiae, UniProt P40917); experiment: Yeast 2-hybrid with Y65 bait to identify binding partners
T2 construct: expressed in transfected cells; host or cells: yeast Y2H cells
T2 sequence (P40917 1-295): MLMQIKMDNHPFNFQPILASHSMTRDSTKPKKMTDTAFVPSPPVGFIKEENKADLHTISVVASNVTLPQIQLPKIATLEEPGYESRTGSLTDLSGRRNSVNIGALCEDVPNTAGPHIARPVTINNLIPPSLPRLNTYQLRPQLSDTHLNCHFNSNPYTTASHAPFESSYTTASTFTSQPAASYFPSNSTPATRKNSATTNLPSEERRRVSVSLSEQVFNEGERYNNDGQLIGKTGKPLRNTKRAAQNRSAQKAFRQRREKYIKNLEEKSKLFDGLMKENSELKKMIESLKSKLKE
Excerpt: One peptide in particular, Y65, was of interest because it had homology to Elongin C (Elc1; Y65 is 20 amino acids in length, with a 7 residue stretch sharing 86% identity and 100% similarity with Elc1). Elc1 is a ubiquitin-protein ligase (E3) conserved among eukaryotes that is involved in DNA repair (Harreman et al, 2009; Ribar et al, 2007). To identify what the peptides bound in order to modify APC activity, Y65 was cloned into the Y2H bait vector and used to identify binding partners.

CC(C)CN(CC(C)C)c1ccc(C=C2C(=O)NC(=S)NC2=O)cc1[N+](=O)[O-] [M2I-1, Mad2 Inhibitor-1]
Growth / toxicity of activator alone in drug resistant breast cancer cells ([1]; 1 or 5 μM, 18 hrs, Trypan Blue): did not impair the growth; also recorded: not toxic | Cell killing / toxicity in combination with chemotherapy (Doxorubicin) ([1]; Tamoxifen resistant MCF7 cells): only in the presence of M2I-1 were cells killed; also recorded: enhances toxicity | Levels of APC substrates (HURP): reduced | Cell killing in combination with chemotherapy [2]: only in the presence of M2I-1 were cells killed | Tumor growth [3]: stalled | Markers of APC substrates in the tumor (Cyclin B): positive for APC activation

NGSSHNDLRVRRLTLISRLC (also: expressed in thioredoxin scaffold) [C43-4, Peptide aptamer expressed from Thioredoxin scaffold; residues 2-14 homologous to Htz1]
Binds Apc10 in a yeast 2 hybrid assay (Apc10): Binds Apc10 | Viability of an APC mutant [4]: increases the viability | apc10Δ growth phenotype (apc10Δ cells): suppressed | Log phase growth of wild type (WT) cells ([5]; 30° C.): Neither C43-4 nor C2-4B influenced | Stress resistance at low level expression ([5]; WT cells on glucose, temperature and/or UV stress, versus empty vector): increased stress resistance | Stress resistance when overexpressed in WT yeast cells ([5]; overexpressed, H2O2 oxidative stress, galactose carbon stress): increased stress resistance | Replicative lifespan (apc5^CA cells): increased | Chronological lifespan (WT cells): increased | Germination of transformed wheat embryos (wheat embryos): germinated faster | Level of tested APC substrate in the embryo (Securin): reduced level

VRQKSDKEYERVLGLGLRRL [Y65, Peptide with homology to Elc1]
Binding to the APC in a yeast 2HY assay (APC): not bind the APC in a yeast 2HY | apc5^CA temperature sensitive (ts) growth / viability of an apc5 temperature sensitive mutant [6]: increases the viability; also recorded: rescued; also recorded: Rescues apc5^CA temperature | Interaction with Cin5 in a yeast 2 hybrid assay (Cin5): One peptide binding partner was isolated, Cin5; also recorded: Interacts with Cin5 in a yeast 2
